target: HPK1 (Homo sapiens (Human), UniProt Q92918); assay: HPK1 Lantha binding assay ("Lanth"); conditions: binding assays; Morrison Ki fit
In short: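 Ki values are from Morrison-equation fitting of 665/615 nm TR-FRET signals, taking enzyme level, tracer level and tracer Kd into account. The assay mix held HPK1 (2 nM), Eu-anti-GST antibody (2 nM) and Tracer222 (15 nM). Incubations were two 1 h steps at 23 °C, on 5-fold serial compound dilutions.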

Chain of HPK1 (Q92918 1-346 limits assumed): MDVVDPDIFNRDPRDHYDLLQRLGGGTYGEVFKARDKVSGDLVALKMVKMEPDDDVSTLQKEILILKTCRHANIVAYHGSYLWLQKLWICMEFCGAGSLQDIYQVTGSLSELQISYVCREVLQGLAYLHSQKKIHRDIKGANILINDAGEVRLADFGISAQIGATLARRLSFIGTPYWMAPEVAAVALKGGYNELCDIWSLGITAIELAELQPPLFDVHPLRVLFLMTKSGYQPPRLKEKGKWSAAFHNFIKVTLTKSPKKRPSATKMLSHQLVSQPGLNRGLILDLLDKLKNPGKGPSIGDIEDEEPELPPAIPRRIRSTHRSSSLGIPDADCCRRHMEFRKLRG

Compound | Ki [µM]
Cc1cc(CC#N)nn1-c1cccc(-c2cnc3c(c2Cl)C2(CC=CC2)CN3)c1 [Compound 257, 2-(1-(3-(4′-Chloro-1′,2′-dihydrospiro[cyclopentane-1,3′-pyrrolo[2,3-b]pyridin]-3-en-5′-yl)phenyl)-5-methyl-1H-pyrazol-3-yl)acetonitrile] | 0.0532
CN(Cc1cnn(C2CCNC2)c1)C(=O)c1cccc(-c2cnc3c(c2Cl)C2(CC=CC2)CN3)c1F (centres unmarked) [Compound 260, 3-(4′-Chloro-1′,2′-dihydrospiro[cyclopentane-1,3′-pyrrolo[2,3-b]pyridin]-3-en-5′-yl)-2-fluoro-N-methyl-N-((1-(pyrrolidin-3-yl)-1H-pyrazol-4-yl)methyl)benzamide] | 0.038
CN(Cc1cnn(CCO)c1)C(=O)c1cccc(-c2cnc3c(c2Cl)C2(CC=CC2)CN3)c1F [Compound 262, 3-(4′-Chloro-1′,2′-dihydrospiro[cyclopentane-1,3′-pyrrolo[2,3-b]pyridin]-3-en-5′-yl)-2-fluoro-N-((1-(2-hydroxyethyl)-1H-pyrazol-4-yl)methyl)-N-methylbenzamide] | 0.012
CN(C)C(=O)C1(c2cccc(-c3cnc4c(c3Cl)C3(CC=CC3)CN4)c2)CC1 [Compound 263, 1-(3-(4′-Chloro-1′,2′-dihydrospiro[cyclopentane-1,3′-pyrrolo[2,3-b]pyridin]-3-en-5′-yl)phenyl)-N,N-dimethylcyclopropane-1-carboxamide] | 0.283
NC(=O)C1(c2cccc(-c3cnc4c(c3Cl)C3(CC=CC3)CN4)c2F)CC1 [Compound 265, 1-(3-(4′-Chloro-1′,2′-dihydrospiro[cyclopentane-1,3′-pyrrolo[2,3-b]pyridin]-3-en-5′-yl)-2-fluorophenyl)cyclopropane-1-carboxamide] | 0.108
O=C(N1CCOCC1)C1(c2cccc(-c3cnc4c(c3Cl)C3(CC=CC3)CN4)c2)CC1 [Compound 268, (1-(3-(4′-Chloro-1′,2′-dihydrospiro[cyclopentane-1,3′-pyrrolo[2,3-b]pyridin]-3-en-5′-yl)phenyl)cyclopropyl)(morpholino)methanone] | 0.484
N#CCNC(=O)c1ccnc(-c2cccc(-c3cnc4c(c3Cl)C3(CC=CC3)CN4)c2F)c1 [Compound 269, 2-(3-(4′-Chloro-1′,2′-dihydrospiro[cyclopentane-1,3′-pyrrolo[2,3-b]pyridin]-3-en-5′-yl)-2-fluorophenyl)-N-(cyanomethyl)isonicotinamide] | 0.191

Next, values leading:

Ki [µM] | Compound
0.012 | CN(C)C(=O)c1c(N)ccc(-c2cnc3c(c2Cl)[C@]2(CC[C@@H](C(C)(C)O)CC2)CN3)c1F [Compound 255b, 6-Amino-3-((1r,4r)-4′-chloro-4-(2-hydroxypropan-2-yl)-1′,2′-dihydrospiro[cyclohexane-1,3′-pyrrolo[2,3-b]pyridin]-5′-yl)-2-fluoro-N,N-dimethylbenzamide]
0.0111 | CN(C)C(=O)c1c(N)ccc(-c2cnc3c(c2Cl)[C@]2(CC[C@@](C)(CO)CC2)CN3)c1F [Compound 256a, 6-Amino-3-((1r,4r)-4′-chloro-4-(hydroxymethyl)-4-methyl-1′,2′-dihydrospiro[cyclohexane-1,3′-pyrrolo[2,3-b]pyridin]-5′-yl)-2-fluoro-N,N-dimethylbenzamide]
0.19 | CN(C)C(=O)c1c(N)ccc(-c2cnc3c(c2Cl)[C@]2(CC[C@@H](CN)CC2)CN3)c1F [Compound 258a, 6-Amino-3-((1r,4r)-4-(aminomethyl)-4′-chloro-1′,2′-dihydrospiro[cyclohexane-1,3′-pyrrolo[2,3-b]pyridin]-5′-yl)-2-fluoro-N,N-dimethylbenzamide]
0.15 | CN(C)C(=O)c1c(N)ccc(-c2cnc3c(c2Cl)[C@]2(CC[C@H](CN)CC2)CN3)c1F [Compound 258b, 6-Amino-3-((1s,4s)-4-(aminomethyl)-4′-chloro-1′,2′-dihydrospiro[cyclohexane-1,3′-pyrrolo[2,3-b]pyridin]-5′-yl)-2-fluoro-N,N-dimethylbenzamide]
